In patent US20250011299A1, “PYRIDAZINYL AMINO DERIVATIVES AS ALK5 INHIBITORS” (CHIESI FARMACEUTICI S.P.A., priority 2021, published 2025):
“And” between values parts separate entries of the source, which are not always exact repeats. Equal entries are not always repeated.

Each compound was assayed against T1, human ALK5 (Homo sapiens, UniProt P36897) (assay: ADP-GLO Kinases assay of ALK5 enzymatic activity). Conditions: purified recombinant human ALK5, TGFβ1 peptide substrate, pIC50 converted to pKi by Cheng-Prusoff, high ATP protocol (15 μM) for very potent compounds, 25° C.
T1 construct: human ALK5 (recombinant TGF β1 N-term GST-tagged, 80-end); GST (N); purchased
T1 sequence (P36897 80-503 limits assumed): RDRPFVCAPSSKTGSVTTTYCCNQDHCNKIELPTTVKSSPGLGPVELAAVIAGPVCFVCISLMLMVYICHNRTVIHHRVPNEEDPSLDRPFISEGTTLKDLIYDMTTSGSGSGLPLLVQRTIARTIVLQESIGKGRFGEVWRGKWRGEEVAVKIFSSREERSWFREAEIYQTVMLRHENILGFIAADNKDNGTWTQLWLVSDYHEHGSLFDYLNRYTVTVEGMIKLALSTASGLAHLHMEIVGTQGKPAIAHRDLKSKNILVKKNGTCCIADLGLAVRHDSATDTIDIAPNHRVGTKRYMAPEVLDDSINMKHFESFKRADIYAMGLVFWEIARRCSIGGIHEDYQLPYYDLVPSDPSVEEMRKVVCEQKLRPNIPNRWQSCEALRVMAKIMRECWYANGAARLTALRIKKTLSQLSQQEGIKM
Type: biochemical
Description: The enzymatic activity of compounds of the present invention was monitored measuring the formation of ADP using the ADP-GLO Kinases assay. Following the incubation of the purified enzyme, a substrate and ATP, the produced ADP was converted into ATP, which in turn was converted into light by Ultra-Glo Luciferase. The luminescent signal positively correlated with ADP amount and kinase activity. […] Compound and ALK5 kinase were mixed and incubated for 15 mins. […] After an incubation of 120 min, the reaction was stopped, and ADP production detected with ADP-Glo kit according to manufacturer's indications. […] After an incubation of 60 min, the kinase reaction was stopped, and ADP production detected with ADP-Glo kit according to manufacturer's indications. All reaction and incubation steps were performed at 25° C. and the assays were performed in 384-well format and validated using a selection of reference compounds tested in 11-point concentration-response curve. […] Results were expressed as pIC50 (negative logarithm of IC50) and subsequently converted to pKi (negative logarithm of […]) using the Cheng-Prusoff equation. The higher the value of pKi, the greater the inhibition of ALK5 activity.

Structure (SMILES) | Ki
CN1CCN([C@@H]2CC[C@@H](C(=O)Nc3cc(Nc4cc(-c5cc(Cl)ccc5F)nnc4SCCO)ccn3)C2)CC1 (single isomer, unassigned; enantiomer 1) [Example 189, Trans Enantiomer 1 N-(4-{[6-(5-chloro-2-fluorophenyl)-3-[(2-hydroxyethyl)sulfanyl]pyridazin-4-yl]amino}pyridin-2-yl)-3-(4-methylpiperazin-1-yl)cyclopentane-1-carboxamide] | ≤ 0.1 nM
CN1CCN(CCOc2ccc3c(Nc4cc(-c5cc(Cl)ccc5F)nnc4OCC(F)F)ccnc3c2)CC1 [Example 3, N-[6-(5-chloro-2-fluorophenyl)-3-(2,2-difluoroethoxy)pyridazin-4-yl]-7-[2-(4-methylpiperazin-1-yl)ethoxy]quinolin-4-amine] | ≤ 0.1 nM
CN(CCC(O)C(F)(F)F)c1nnc(-c2cc(Cl)ccc2F)cc1Nc1ccnc(NC(=O)CN2C[C@@H]3C[C@H]2CN3C)c1 (mixture of isomers) [Example 130, N-(4-{[6-(5-chloro-2-fluorophenyl)-3-[methyl(4,4,4-trifluoro-3-hydroxybutyl)amino]pyridazin-4-yl]amino}pyridin-2-yl)-2-[(1S,4S)-5-methyl-2,5-diazabicyclo[2.2.1]heptan-2-yl]acetamide] | ≤ 0.1 nM
CN1CCN(CCC(=O)Nc2cc(Nc3cc(-c4cc(Cl)ccc4F)nnc3SCC(O)CO)ccn2)CC1 (stereo not shown) [Example 86, N-(4-{[6-(5-chloro-2-fluorophenyl)-3-[(2,3-dihydroxypropyl)sulfanyl]pyridazin-4-yl]amino}pyridin-2-yl)-3-(4-methylpiperazin-1-yl)propanamide] | ≤ 0.1 nM
CN1CCN(CCC(=O)Nc2cc(Nc3cc(-c4cc(Cl)ccc4F)nnc3N(C)CC3CCOC3=O)ccn2)CC1 (stereo not shown) [Example 108, N-(4-{[6-(5-chloro-2-fluorophenyl)-3-{methyl[(2-oxooxolan-3-yl)methyl]amino}pyridazin-4-yl]amino}pyridin-2-yl)-3-(4-methylpiperazin-1-yl)propanamide] | ≤ 0.1 nM
O=C(O)C1CCN([C@H]2C[C@@H](C(=O)Nc3cc(Nc4cc(-c5cc(Cl)ccc5F)nnc4SCCO)ccn3)C2)CC1 [Example 167, Cis 1-{3-[(4-{[6-(5-chloro-2-fluorophenyl)-3-[(2-hydroxyethyl)sulfanyl]pyridazin-4-yl]amino}pyridin-2-yl)carbamoyl]cyclobutyl}piperidine-4-carboxylic acid] | 0.126 to 0.316 nM
CSCCCOc1nnc(-c2cc(Cl)ccc2F)cc1Nc1ccnc(NC(=O)CCN2CCN(C)CC2)c1 [Example 4, N-(4-{[6-(5-chloro-2-fluorophenyl)-3-[3-(methylsulfanyl)propoxy]pyridazin-4-yl]amino}pyridin-2-yl)-3-(4-methylpiperazin-1-yl)propanamide] | 0.126 to 0.316 nM
O=C(Nc1cc(Nc2cc(-c3cc(Cl)ccc3F)nnc2OCCN2CCCC2)ccn1)C1CC1 [Example 54, N-(4-{[6-(5-chloro-2-fluorophenyl)-3-[2-(pyrrolidin-1-yl)ethoxy]pyridazin-4-yl]amino}pyridin-2-yl)cyclopropanecarboxamide] | ≤ 0.1 nM
CN(C)CCOc1nnc(-c2cc(Cl)ccc2F)cc1Nc1ccnc(NC(=O)CCN2CCOCC2)c1 [Example 40, N-(4-{[6-(5-chloro-2-fluorophenyl)-3-[2-(dimethylamino)ethoxy]pyridazin-4-yl]amino}pyridin-2-yl)-3-(morpholin-4-yl)propanamide] | 0.126 to 0.316 nM and 0.398 to 3.16 nM
Nc1cc(Nc2cc(-c3cc(Cl)ccc3F)nnc2OCC(F)F)ccn1 [Example 53, N4-[6-(5-chloro-2-fluorophenyl)-3-(2,2-difluoroethoxy)pyridazin-4-yl]pyridine-2,4-diamine] | 0.398 to 3.16 nM
CN1CCN([C@@H]2CC[C@H](C(=O)Nc3cc(Nc4cc(-c5cc(Cl)ccc5F)nnc4SCCO)ccn3)C2)CC1 (single isomer, unassigned; enantiomer 1) [Example 188, Cis Enantiomer 1 N-(4-{[6-(5-chloro-2-fluorophenyl)-3-[(2-hydroxyethyl)sulfanyl]pyridazin-4-yl]amino}pyridin-2-yl)-3-(4-methylpiperazin-1-yl)cyclopentane-1-carboxamide] | ≤ 0.1 nM
CN1CCN(CCC(=O)Nc2cc(Nc3cc(-c4cc(Cl)ccc4F)nnc3O[C@H]3C[C@@H](CO)C3)ccn2)CC1 [Example 80, N-(4-{[6-(5-chloro-2-fluorophenyl)-3-[3-(hydroxymethyl)cyclobutoxy]pyridazin-4-yl]amino}pyridin-2-yl)-3-(4-methylpiperazin-1-yl)propanamide] | ≤ 0.1 nM
CN1CCN(CCC(=O)Nc2cc(Nc3cc(-c4cc(Cl)ccc4F)nnc3SCCOCCO)ccn2)CC1 [Example 194, N-(4-{[6-(5-chloro-2-fluorophenyl)-3-{[2-(2-hydroxyethoxy)ethyl]sulfanyl}pyridazin-4-yl]amino}pyridin-2-yl)-3-(4-methylpiperazin-1-yl)propanamide] | ≤ 0.1 nM
CN1CCN([C@H]2C[C@@H](C(=O)Nc3cc(Nc4cc(-c5cc(Cl)ccc5F)nnc4OCc4cccc(O)c4)ccn3)C2)CC1 [Example 119, Cis N-(4-{[6-(5-chloro-2-fluorophenyl)-3-[(3-hydroxyphenyl)methoxy]pyridazin-4-yl]amino}pyridin-2-yl)-3-(4-methylpiperazin-1-yl)cyclobutane-1-carboxamide] | ≤ 0.1 nM

Results, then the compound that gave them:

Ki | Structure (SMILES)
≤ 0.1 nM | CN1CCN([C@H]2C[C@@H](C(=O)Nc3cc(Nc4cc(-c5cc(Cl)ccc5F)nnc4OC[C@H]4C[C@@](C)(O)C4)ccn3)C2)CC1 [Example 124, Cis N-(4-{[6-(5-chloro-2-fluorophenyl)-3-[(3-hydroxy-3-methylcyclobutyl)methoxy]pyridazin-4-yl]amino}pyridin-2-yl)-3-(4-methylpiperazin-1-yl)cyclobutane-1-carboxamide]
≤ 0.1 nM | Cc1oc(=O)oc1CSc1nnc(-c2cc(Cl)ccc2F)cc1Nc1ccnc(NC(=O)CCN2CCN(C)CC2)c1 [Example 190, N-(4-{[6-(5-chloro-2-fluorophenyl)-3-{[(5-methyl-2-oxo-2H-1,3-dioxol-4-yl)methyl]sulfanyl}pyridazin-4-yl]amino}pyridin-2-yl)-3-(4-methylpiperazin-1-yl)propanamide]
0.126 to 0.316 nM | O=C(Nc1cc(Nc2cc(-c3cc(Cl)ccc3F)nnc2SCCO)ccn1)C12CC(CN3CCN(C4CC4)CC3)(C1)C2 [Example 183, N-(4-{[6-(5-chloro-2-fluorophenyl)-3-[(2-hydroxyethyl)sulfanyl]pyridazin-4-yl]amino}pyridin-2-yl)-3-[(4-cyclopropylpiperazin-1-yl)methyl]bicyclo[1.1.1]pentane-1-carboxamide]
≤ 0.1 nM | C[C@@H]1CN([C@H]2C[C@@H](C(=O)Nc3cc(Nc4cc(-c5cc(Cl)ccc5F)nnc4N(C)CC4(C)CCOC4=O)ncn3)C2)C[C@H](C)N1 (single isomer, unassigned) [Example 186, N-(6-{[6-(5-chloro-2-fluorophenyl)-3-{methyl[(3-methyl-2-oxooxolan-3-yl)methyl]amino}pyridazin-4-yl]amino}pyrimidin-4-yl)-3-(3,5-dimethylpiperazin-1-yl)cyclobutane-1-carboxamide]
≤ 0.1 nM | CN1CCN([C@H]2C[C@@H](C(=O)Nc3cc(Nc4cc(-c5cc(Cl)ccc5F)nnc4N(C)C)ccn3)C2)CC1 [Example 97, cis N-(4-{[6-(5-chloro-2-fluorophenyl)-3-(dimethylamino)pyridazin-4-yl]amino}pyridin-2-yl)-3-(4-methylpiperazin-1-yl)cyclobutane-1-carboxamide]
≤ 0.1 nM | CN1CCN(CCC(=O)Nc2cc(Nc3cc(-c4cc(Cl)ccc4F)nnc3N3CC(CO)C3)ccn2)CC1 [Example 95, N-(4-{[6-(5-chloro-2-fluorophenyl)-3-[3-(hydroxymethyl)azetidin-1-yl]pyridazin-4-yl]amino}pyridin-2-yl)-3-(4-methylpiperazin-1-yl)propanamide]
≤ 0.1 nM | CN1CC2(C1)CN(CC(=O)Nc1cc(Nc3cc(-c4cc(Cl)ccc4F)nnc3SCCO)ccn1)C2 [Example 24, N-(4-{[6-(5-chloro-2-fluorophenyl)-3-[(2-hydroxyethyl)sulfanyl]pyridazin-4-yl]amino}pyridin-2-yl)-2-{6-methyl-2,6-diazaspiro[3.3]heptan-2-yl}acetamide]
≤ 0.1 nM | CN1CCN(CCC(=O)Nc2cc(Nc3cc(-c4cc(Cl)ccc4F)nnc3N(C)C3CCOC3)ccn2)CC1 (racemic) [Example 105, N-(4-{[6-(5-chloro-2-fluorophenyl)-3-[methyl(oxolan-3-yl)amino]pyridazin-4-yl]amino}pyridin-2-yl)-3-(4-methylpiperazin-1-yl)propanamide]
